# Tested on: CML (carboxymethyl adducts of lysine) induced by glyoxal
# Assay: Inhibition of glyoxal-induced CML formation in cultured human dermal fibroblasts (immunofluorescence)
# Type: cell-based
# Conditions: aminoguanidine 10 mM, positive reference, fibroblasts with 200 μM glyoxal for 7 days
# Experimental: It is a question of evaluating the inhibitory activity of the extract of Chrysophyllum cainito with respect to CML (carboxymethyl adducts of lysine) induced by glyoxal as well as its protective effect on vimentin, the target of formation of the CMLs, in a culture of human dermal fibroblasts.
# Normal adult human fibroblasts were cultivated at 37° C. and 5% CO2 on a cover slip in a Petri dish of diameter 60 at a rate of 30000 cells per cover slip. The incubation medium is DMEM medium (Dulbecco modified Eagle medium) supplemented with 10% fetal calf serum and penicillin/streptomycin (50 μg/ml). […]
# The cells were washed with PBS (phosphate-buffered saline) and permeabilized with 0.1% Triton X-100 for 10 minutes. […] Before taking the reading, 4 rinsings with PBS are performed.
# The cover slips are mounted on the glass slide and then examined with the fluorescence microscope (Nikon Eclipse 50i). […] The photomicrographs are analyzed using Lucia image analysis software. The FITC fluorescence images indicate the regions of localization of vimentin. The TRITC fluorescence images indicate the regions of localization of CML. The DAPI fluorescence images indicate the cell nuclei and therefore the number of cells per field (see FIGS. 1 to 4).
# This intensity of fluorescence is shown relative to the number of cells per micrograph. […]
structure (smiles),measurement,setting,value
N=C(N)NN [Aminoguanidine],"inhibition of the formation of carboxymethyl adducts of lysine (CML), intensity of labeling",,completely inhibits
same,"inhibition of the formation of carboxymethyl adducts of lysine (CML), intensity of labeling",listed as aminoguanidine,completely inhibited

# Reference: US8293294B2, “Cosmetic composition comprising an aqueous extract of Chrysophyllum cainito” (Laboratories Clarins, priority 2008, dated 2012)
